From patent US20140045807A2, “THE USE OF 3-METHOXY-PREGNENOLONE FOR THE PREPARATION OF A DRUG FOR TREATING A TRAUMATIC BRAIN INJURY” (priority 2004, published 2014)
In brackets after ≈: the same amount, converted by molar mass.

Columns and labels:
GFAP = GFAP immunostaining after Lateral Fluid Percussion (LFP); type: in vivo, rat; conditions: first injection 2 hours post-trauma, day 35, no statistical analysis
Description: FIG. 24: Quantification of GFAP immunostaining in LFP-injured animals. (A) GFAP immunostaining in injured cortex of LFP-injured animals injected with vehicle (sesame oil), or 3-methoxy-PREG (MAP4343) at 10 mg/kg or 20 mg/kg, with first injection at 2 hours post-trauma. (B) GFAP immunostaining in injured and uninjured thalamus of LFP-injured animals injected with vehicle (sesame oil), or 3-methoxy-PREG (MAP4343) at 10 mg/kg or 20 mg/kg, with first injection at 2 hours post-trauma. No statistical analysis has been performed.
After anesthesia induction, the animal was placed on a stereotaxic frame. […]
Trauma was induced by a fluid percussion device (Custom Design and Manufacturing, United Kingdom) (Besson et al., 2003): it is a cylindrical tank (60 cm long), with a piston on one side, over which a hammer exercises a constraint, and a male Luer-Lock on the other side. […] The amplitude of each shock wave was measured via a pressure transducer connected to the terminal portion of the device. The pressure signal was recorded on an oscilloscope. […]
After mounting on Superfrost slides, frozen sections were dried for 90 minutes at room temperature and stored at −80° C. until use. […] Immunostaining was quantitatively assessed by optical density measurements directly from the section image (Image J). […]

[1] = In vivo toxicity, daily injection for one month; set-up: species or system rat; conditions: rats, daily injection for one month of 48 mg/kg
[2] = MAP4343 in the brain after TBI (LC-MS/MS); type: in vivo, rat; conditions: 20 mg/kg single injection 2 h after TBI; 4 h after injection; CHI, LFP, CCI models
Description: FIG. 16: 3-methoxy-PREG (MAP4343) concentrations in the brain 4 h after a single injection of MAP4343 (20 mg/kg, injected 2 h after TBI or sham-surgery).
MAP4343 was dissolved in sesame oil and injected subcutaneously. Two distinct doses of MAP4343 (10 and 20 mg/kg) were tested in each model. The injection took place 2 h after trauma.
In order to establish whether TBI modifies the passage of MAP4343 into the brain, MAP4343 was measured by liquid chromatography associated to tandem mass spectrometry (LC-MS/MS) in the brain of animals sacrificed 6 h after CHI, LFP or CCI (4 h after MAP4343 single injection).
In order to establish whether TBI modifies the passage of 3-methoxy-PREG (MAP4343) into the brain, MAP4343 was measured by liquid chromatography coupled to tandem mass spectrometry LC-MS/MS in the brain of animals sacrificed 6 h after CHI, LFP or CCI (4 h after MAP4343 injection).

PC12 cells = assay: Retraction of neurites induced by nocodazole; type: cell-based, rat; conditions: pretreated one hour at 30 μM, nocodazole 15 minutes
Source text: FIG. 5: Retraction of neurites (neurites) induced by nocodazole.
Nocodazole is a microtubule depolymerizing agent. Its addition to PC12 cell cultures, differentiated in the presence of NGF, causes neurites to retract as a result of the depolymerization of their microtubules.

ERβ = ERβ (Homo sapiens, UniProt Q92731); assay: Radioligand binding assay, ERβ; conditions: MAP4343 10 μM; 0.5 nM [^3H] Estradiol; Human recombinant Sf9 cells
ERβ, sequence (Q92731 whole entry): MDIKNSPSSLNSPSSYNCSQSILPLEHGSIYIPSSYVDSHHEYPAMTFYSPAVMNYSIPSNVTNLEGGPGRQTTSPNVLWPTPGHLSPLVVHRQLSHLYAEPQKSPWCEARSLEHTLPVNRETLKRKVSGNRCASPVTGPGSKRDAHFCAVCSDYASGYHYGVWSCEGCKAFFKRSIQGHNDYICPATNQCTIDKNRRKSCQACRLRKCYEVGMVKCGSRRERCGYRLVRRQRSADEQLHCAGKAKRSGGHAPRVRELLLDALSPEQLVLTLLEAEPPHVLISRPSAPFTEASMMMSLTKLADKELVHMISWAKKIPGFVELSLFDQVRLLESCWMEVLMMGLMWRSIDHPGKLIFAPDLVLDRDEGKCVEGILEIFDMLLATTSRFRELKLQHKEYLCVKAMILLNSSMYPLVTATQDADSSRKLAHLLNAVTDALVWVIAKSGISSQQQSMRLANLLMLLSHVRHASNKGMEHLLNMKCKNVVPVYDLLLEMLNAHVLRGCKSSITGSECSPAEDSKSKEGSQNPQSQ
Description: Binding affinity of 3-methoxy-PREG (MAP4343) for receptors of steroid hormones was evaluated using radioligand binding assays.

[3] = Neurosteroids and 3-methoxy-PREG levels in plasma and hippocampus; conditions: rat
Solubility limit = type: physicochemical; conditions: read-out: solubility limits
[4] = 3 h following injection, 10 mg/kg subcutaneously

Compound: CO[C@H]1CC[C@@]2(C)C(=CC[C@H]3[C@@H]4CC[C@H](C(C)=O)[C@@]4(C)CC[C@@H]32)C1 [3-methoxy-PREG, 3β-methoxy-pregna-5-ene-20-one]
- astrocytes GFAP immunoreactivity in the injured cortex (GFAP; 10 mg/kg or 20 mg/kg): highly decreased
- astrocytes immunoreactivity (GFAP) in the injured thalamus (GFAP; especially Dose2 (20 mg/kg)): strongly decreases astrocytes immunoreactivity
- average weight and behavior [1]: affected neither average weight nor behavior
- MAP4343 concentrations in the brain [2]: concentrations of MAP4343 of significant therapeutic interest reach the brain
- resistance of neurites to nocodazole (PC12 cells): makes the neurites resistant to nocodazole
- % inhibition of specific binding (ERβ): < 25%
- conversion back to PREG or metabolism to PROG ([3]; 3 h after 10 mg/kg subcutaneously): not converted back to PREG or metabolized to PROG
- concentration of the drug in hippocampus [3, 4]: 73.3 ± 14.68 ng/g
- concentration of the drug in plasma [3, 4]: 21.11 ± 5.04 ng/mL
- solubility (Solubility limit): ~50 µM (≈ 16.5 µg/mL)
